Assay results reported in patent US9968616B2, “Discovery of FDA-approved drugs as inhibitors of fatty acid binding protein 4 using molecular docking screening” (The Chinese University of Hong Kong, priority 2014, dated 2018).

Assays:
[1] = system: 3T3-L1 cells; experiment: Adipolysis assay (glycerol release) in 3T3-L1 cells; assay type: cell-based, Mouse; settings: 10 μM, FIG. 3B; for isoproterenol-stimulated adipolysis: isoproterenol 100 nM for 24 hours
Protocol: Mouse 3T3-L1 pre-adipocytes were cultured in Dulbecco's Modified Eagle's Medium (DMEM) supplemented with 10% fetal bovine serum, 100 units/ml penicillin and 100 μg/ml streptomycin at 37° C. in a humidified 95% air and 5% CO2 atmosphere. All cell culture reagents were purchased from Invitrogen (Carlsbad, Calif., USA). To initiate 3T3-L1 adipocyte differentiations, the standard differentiation cocktail (250 nM dexamethasone, 100 mM 3-isobutyl-1-methylxanthine and 175 nM human insulin, all purchased from Sigma, St. Louis, Mo.) was added to the medium after 2 days post-confluence. After 2 days, the medium was replaced with fresh complete medium containing insulin. Culture medium was changed every 2 days. Levofloxacin or benzbromarone (BBR) (Sigma, St. Louis, Mo.) was dissolved in DMSO and added to the medium at the beginning of pre-adipocyte differentiations. […] Confluent 3T3-L1 pre-adipocytes (day 0) were stimulated by the differentiation cocktail and cultured for 2 days with culture medium (Control), 10 μM of levofloxacin (Levofloxacin) or 10 μM benzbromarone (BBR). At day 2, the culture medium was collected and the extent of adipolysis was evaluated using Adipolysis Assay Kit (Cayman Chemical: 10009381, MI, US). During adipolysis, triglycerides are hydrolysed to release free fatty acids and glycerol. The amount of glycerol released into the medium as measured by the kit is proportional to the degree of adipolysis. Basal adipolysis and isoproterenol-induced adipolysis were studied. Isoproterenol was included as a positive control for screening pharmaceuticals that are known to regulate the adipolysis. Cells were treated with 100 nM of isoproterenol for 24 hours after the treatment with culture medium, levofloxacin or benzbromarone. Results were repeated at least three times from three independent experiments and presented as mean±SD, n=3 (FIG. 3B). The results were statistically analyzed by one-way ANOVA test. *, P<0.05; compared with the control group. #, P<0.05; compared with the isoproterenol-treated group.

[2] = system: 3T3-L1 cells; experiment: Cell viability (MTT assay); assay type: cell-based, Mouse; settings: 10 μM, regardless of the isoproterenol treatment, FIG. 3C
[3] = system: 3T3-L1 cells; settings: 10 μM, reference 31; cited from earlier work
[4] = system: 3T3-L1 cells; experiment: Oil Red O staining (induction of adipogenesis); assay type: cell-based, Mouse; settings: 10 μM, days 0-6 of differentiation, versus control group, FIG. 3D
[5] = molecular target: human FABP4 (Homo sapiens, UniProt P15090); experiment: FABP4 Inhibitor/Ligand Screening Assay Kit, cell-free ligand displacement fluorescence-labeled probe assay; assay type: binding; settings: for inhibition at 10 µM: read-out: % FABP4 inhibition (10 μM)
Sequence of human FABP4 (P15090 whole entry): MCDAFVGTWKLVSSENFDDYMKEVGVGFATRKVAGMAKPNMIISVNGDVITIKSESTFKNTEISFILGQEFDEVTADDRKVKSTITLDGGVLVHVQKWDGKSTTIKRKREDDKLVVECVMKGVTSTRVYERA

[6] = system: PPARγ; experiment: Western blot detection of PPARγ protein level in 3T3-L1 cells; assay type: cell-based, Mouse; settings: 10 μM, Day 6, cell lysate, FIG. 3E
Protocol: Mouse 3T3-L1 pre-adipocytes were cultured in Dulbecco's Modified Eagle's Medium (DMEM) supplemented with 10% fetal bovine serum, 100 units/ml penicillin and 100 μg/ml streptomycin at 37° C. in a humidified 95% air and 5% CO2 atmosphere. All cell culture reagents were purchased from Invitrogen (Carlsbad, Calif., USA). To initiate 3T3-L1 adipocyte differentiations, the standard differentiation cocktail (250 nM dexamethasone, 100 mM 3-isobutyl-1-methylxanthine and 175 nM human insulin, all purchased from Sigma, St. Louis, Mo.) was added to the medium after 2 days post-confluence. After 2 days, the medium was replaced with fresh complete medium containing insulin. Culture medium was changed every 2 days. Levofloxacin or benzbromarone (BBR) (Sigma, St. Louis, Mo.) was dissolved in DMSO and added to the medium at the beginning of pre-adipocyte differentiations.
As in the above Oil Red O Staining assay, cells were harvested on Day 6 and the total protein was collected for western blotting to estimate the PPARγ protein level in the treated 3T3-L1 cells. […] Specific bands were detected using […] (BCIP) and nitro blue tetrazolium (NBT) system (Bio-Rad, Hercules, Calif.) and photographed (FIG. 3E). […]

| SMILES | basal adipolysis [1] | isoproterenol-stimulated adipolysis [1] | proliferation/viability of 3T3-L1 cells (cytotoxicity) [2] | inhibition at 10 µM [5] | further results |
| --- | --- | --- | --- | --- | --- |
| CCc1oc2ccccc2c1C(=O)c1cc(Br)c(O)c(Br)c1 [BBR, benzbromarone] | inhibitory effects were also observed | inhibitory effects were also observed | not affected | – | adipolysis (literature report) [3]: inhibits the adipolysis |
| C[C@H]1COc2c(N3CCN(C)CC3)c(F)cc3c(=O)c(C(=O)O)cn1c23 [Levofloxacin, (S)-9-fluoro-2,3-dihydro-3-methyl-10-(4-methylpiperazin-1-yl)-7-oxo-7H-pyrido[1,2,3-de]-1,4-benzoxazine-6-carboxylic acid] | inhibited | inhibited | not affected | 70 ± 12.2% | lipid accumulation (red dots, Oil Red O) [4]: did not promote lipid accumulation; IC50 ([5]; dose-response, Prism 5, read-out: IC50 FABP4 activity inhibition): 5.83 µM; protein expression of PPARγ [6]: did not increase |
| Cc1nc2n(c(=O)c1CCN1CCC(c3noc4cc(F)ccc34)CC1)CCCC2O (stereo not drawn) [Paliperidone] | – | – | – | 5.12 ± 6.9% | – |
| O=c1[nH]c2ccccc2n1C1CCN(CCCC(c2ccc(F)cc2)c2ccc(F)cc2)CC1 [Pimozide] | – | – | – | 47 ± 11.3% | – |
| Cc1nc2n(c(=O)c1CCN1CCC(c3noc4cc(F)ccc34)CC1)CCCC2 [Risperidone] | – | – | – | 1.64 ± 12.9% | – |
| N[C@@H]1[C@H]2CN(c3nc4c(cc3F)c(=O)c(C(=O)O)cn4-c3ccc(F)cc3F)C[C@@H]12 [Trovafloxacin] | – | – | – | 57.5 ± 12.2% | – |
